The values that follow come from article PMC5773577, “Novel Miniature Membrane Active Lipopeptidomimetics against Planktonic and Biofilm Embedded Methicillin-Resistant Staphylococcus aureus” (Scientific Reports, 2018).

The subject of data set [1] is MRSA (ATCC 33591). Nature of the data set: microbe, parasite or virus in culture. Type of data set: cell-based, Staphylococcus aureus. To be noted: MHB, 2–5 × 10^5 CFU/mL, 16–18 h, 37 °C, OD600. As to the method: (§1) The antibacterial activity was evaluated as MIC using slight modifications to a serial broth micro dilution method as reported previously[66],[67]. Briefly, to each treatment well of the 96-well plate (Corning Incorporated, USA) 10 μL of peptidomimetic/antibiotic was added and subsequently diluted serial 2-fold in 0.2% BSA (in 0.01% acetic acid). Then to each well of the first 11 columns 100 μL of mid-log phase bacterial suspension in MHB medium was added to get 2–5 × 10^5 CFU/mL. Cultures without test peptidomimetics/antibiotics were used as growth control. Uninoculated MHB medium was used as negative control. The microtitre plates were incubated overnight with agitation (180 rpm) at 37 °C. After 16–18 h incubation, absorbance was read at 600 nm using an ELISA plate reader (Molecular Devices, Sunnyvale, CA, USA). The experiments were carried out in duplicate on at least three different days.

In data set [2] the test system is MRSA ATCC 33591. In words: Membrane depolarization assay, DiSC3(5). It counts as cell-based, Staphylococcus aureus. The note with it: 2 min, DiSC3(5), HEPES-glucose buffer pH 7.2, 37 °C, mean ± S.D., two days. As to the method:
The cytoplasmic membrane depolarization in MRSA ATCC 33591 strain was measured using membrane potential sensitive dye 3,3′-dipropylthiacarbocyanine iodide (DiSC3(5)) with a protocol described previously with slight modifications[23],[48]. Briefly, exponential phase cells grown in MHB were harvested by centrifugation, washed and re-suspended in respiration buffer (5 mM HEPES, 20 mM glucose, pH 7.2) to 2.5 × 10^6 CFU/mL. The cells were divided into 1 mL aliquots and incubated with 3.6 μM of DiSC3(5) (in dark) for 30 min to get steady baseline fluorescence intensity. The dye-loaded cells (800 μL) were then treated with peptidomimetics at respective 1× and 4× MIC concentrations (2–20 μL) and consequent fluorescence increase after 2 min of addition was measured in a Shimadzu RF-5301 PC spectrofluorimeter. As controls IL, melittin and VAN were also assayed under identical conditions. The samples were excited at 622 nm and emission was recorded between 650–700 nm with 3 nm slit width for both excitation and emission. The temperature was maintained at 37 °C throughout the experiment. Depolarization kinetics was measured at 4 × MIC of test agents for 5 min. The experiment was repeated on two different days and for Fig. 3 panel (A) mean ± S.D. data for % depolarization relative to melittin control (10 μM) set as 100% is presented here. For panel (B) representative data is shown here. The viability of dye-loaded cells corresponding to depolarization experiment at 4 × MIC concentration was also measured by plating the diluted aliquots onto BHI agar plates.

For data set [3], the system named is MRSA ATCC 33591. In words: Membrane permeabilization assay, calcein-AM dye release, flow cytometry. It counts as cell-based, Staphylococcus aureus. The note with it: PBS, 37 °C, mean ± S.D., two days. As to the method:
To assess the effect of designed peptidomimetics on membrane integrity of MRSA ATCC 33591 strain a calcein-AM dye release experiment was performed using the protocol described previously with slight modifications. Briefly, exponential phase MRSA ATCC 33591 culture was prepared in MHB medium as mentioned earlier and adjusted to OD600 = 1 (~10^9 CFU/mL) in PBS (10 mM sodium phosphate, 150 mM NaCl, pH 7.4). Thereafter, the cells were incubated at 37 °C with calcein-AM (2 μg/mL) in 10% MHB medium for 2 h. The calcein-loaded cells were washed once and re-suspended in PBS to OD600 = 0.5 (~10^8 CFU/mL). […] Subsequently, calcein fluorescence was measured via flow cytometry (Becton Dickinson (BD) FACS verse, San Jose, CA) with excitation and emission wavelengths of 488 nm and 530 ± 30 nm, respectively. For each sample, 10,000 cells were acquired. As a positive control, melittin (10 μM) was assayed under identical conditions. The experiment was repeated on two different days and mean ± S.D. is presented here. Corresponding to leakage a viability assay at 4 × MIC of respective test agents was also performed by incubating samples for 2 h at 37 °C and plating the diluted aliquots on BHI agar plates.

For data set [4], the system named is MRSA ATCC 33591. Nature of the data set: Cell viability corresponding to calcein leakage experiment. Type of data set: cell-based, Staphylococcus aureus. To be noted: calcein-loaded cells in PBS, 4 × MIC (melittin 10 μM), 2 h incubation.
Experimental: To assess the effect of designed peptidomimetics on membrane integrity of MRSA ATCC 33591 strain a calcein-AM dye release experiment was performed using the protocol described previously with slight modifications[51]. Briefly, exponential phase MRSA ATCC 33591 culture was prepared in MHB medium as mentioned earlier and adjusted to OD600 = 1 (~10^9 CFU/mL) in PBS (10 mM sodium phosphate, 150 mM NaCl, pH 7.4). Thereafter, the cells were incubated at 37 °C with calcein-AM (2 μg/mL) in 10% MHB medium for 2 h. The calcein-loaded cells were washed once and re-suspended in PBS to OD600 = 0.5 (~10^8 CFU/mL). The cells were diluted 100× in PBS to get 3–5 × 10^5 CFU/mL and were incubated with different concentrations of test agents at 37 °C in dark for 2 h. Subsequently, calcein fluorescence was measured via flow cytometry (Becton Dickinson (BD) FACS verse, San Jose, CA) with excitation and emission wavelengths of 488 nm and 530 ± 30 nm, respectively. For each sample, 10,000 cells were acquired. As a positive control, melittin (10 μM) was assayed under identical conditions. The experiment was repeated on two different days and mean ± S.D. is presented here. […]
agar plates. The plates were incubated at 37 °C for 16-18 h and colonies were counted. […]
Data set [5] has as its system S. aureus (ISP479R). It counts as cell-based, Staphylococcus aureus. The note with it: MHB, 2–5 × 10^5 CFU/mL, 16–18 h, 37 °C, OD600. As to the method:
as §1

Data set [6] has as its system MRSA (ATCC 43300). In words: microbe, parasite or virus in culture. Type of data set: cell-based, Staphylococcus aureus. To be noted: MHB, 2–5 × 10^5 CFU/mL, 16–18 h, 37 °C, OD600. As to the method: as §1
In data set [7] the test system is S. aureus (ATCC 29213). Nature of the data set: microbe, parasite or virus in culture. The note with it: MHB, 2–5 × 10^5 CFU/mL, 16–18 h, 37 °C, OD600, duplicate, at least three days. It counts as cell-based, Staphylococcus aureus. As to the method: as §1
Data set [8] relates to S. aureus (ISP479C). Nature of the data set: microbe, parasite or virus in culture. It counts as cell-based, Staphylococcus aureus. The note with it: MHB, 2–5 × 10^5 CFU/mL, 16–18 h, 37 °C, OD600. As to the method:
as §1

Data set [9] deals with Methicillin-resistant S. epidermidis (ATCC 35984). In words: microbe, parasite or virus in culture. Type of data set: cell-based, Staphylococcus epidermidis. To be noted: MRSE ATCC 35984; MHB, 2–5 × 10^5 CFU/mL, 16–18 h, 37 °C, OD600. As to the method: as §1
In data set [10] the test system is E. faecium (E-447), clinical isolate of vancomycin-resistant E. faecium. Nature of the data set: organism not typed. It counts as cell-based, Enterococcus faecium. The note with it: VRE clinical isolate E-447; MHB, 2–5 × 10^5 CFU/mL, 16–18 h, 37 °C. As to the method:
as §1

Data set [11] deals with E. faecium (E-7846), clinical isolate of vancomycin-resistant E. faecium. Nature of the data set: organism not typed. It counts as cell-based, Enterococcus faecium. To be noted: VRE clinical isolate E-7846; MHB, 2–5 × 10^5 CFU/mL, 16–18 h, 37 °C. As to the method:
as §1

Data set [12] relates to Escherichia coli (ATCC 11775). Type of data set: cell-based. As to the method:
as §1

Data set [13] has as its system MRSA ATCC 33591. Nature of the data set: microbe, parasite or virus in culture. It counts as cell-based, Staphylococcus aureus. As to the method:
An initial inoculum of mid-log phase 10^7 CFU/mL was used and MIC experiment was performed as described earlier. For serum/plasma stability assay a method as described previously was used with slight modifications. Briefly, 50 μL MHB medium containing desired concentration of test peptidomimetics was incubated with 50 µL mice plasma/fetal bovine serum for 3 h at 37 °C. After incubation, a 10 μL aliquot was taken out for MIC determination as described above. For the experiment, mid-log phase 2–5 × 10^5 CFU/mL were used as initial inoculum. For the growth control wells, an equivalent amount of plasma/FBS in the medium was also added to evaluate their effect on the viability of cells. A slight decrease in OD600 of cells incubated with mice plasma was observed compared to untreated growth control in MHB alone. The experiments were repeated on two different days and reproducible MIC values were observed.

In data set [14] the test system is 3T3 murine fibroblast cell line. In words: Cytotoxicity, MTT assay. The note with it: 3T3 fibroblasts, 2 h, DMEM with 10% FBS, mean ± S.D., triplicate on two days. Type of data set: cell-based. As to the method:
For the active peptidomimetics cytotoxicity was measured against 3T3 murine fibroblast cell line using a previously defined MTT assay with slight modifications. Briefly, the cells were grown to over 75% confluence in DMEM supplemented with 10% FBS and antibiotics (1 × Anti-anti) at 37 °C in 5% CO2 atmosphere. The cells were transferred to a 24-well plate to a final count of ~8 × 10^4 cells/well. […] The plates were kept for 2 h at 37 °C in 5% CO2 incubator. After 2 h, the cells were washed once with 1 mL PBS. Then 1 mL MTT (0.1 mg/mL) was added to each well in dark and incubated for 2 h at 37 °C in 5% CO2. After 2 h, 200 μL of DMSO was added to the wells to dissolve the formazan crystals formed and the plates were kept for 5 min in the incubator at 37 °C. 100 μL of the suspension was transferred to a fresh 96-well plate and absorbance (Asample) was measured at 570 nm in an ELISA plate reader (Molecular Devices, Sunnyvale, CA, USA). The wells with DMSO treatment were set as untreated control (Auntreated control). The assay was done in triplicate on two different days. The % survival was calculated using the following equation:2 %survival=[Asample/Auntreatedcontrol]×100
On the technique in general: Tetrazolium assays rely on reduction of a dye to a coloured formazan, in cell work by metabolically active cells.

Data set [15] relates to S. aureus (ATCC 25923). In words: microbe, parasite or virus in culture. It counts as cell-based, Staphylococcus aureus. To be noted: MHB, 2–5 × 10^5 CFU/mL, 16–18 h, 37 °C, OD600. As to the method: as §1
For data set [16], the system named is mouse red blood cells (RBCs). In words: Hemolysis assay. The note with it: mouse RBC, up to 250 μg/mL, 1 h, 37 °C, PBS pH 7.4; 0.1% Triton X-100 = 100%; data not shown. Type of data set: cell-based. As to the method: For the experiment, a previously defined procedure was used with slight modifications[67],[68]. Briefly, blood was withdrawn from mice on the day of the experiment. After washing red blood cells (RBC) twice with phosphate buffer saline (PBS: 35 mM sodium phosphate, 150 mM NaCl, pH 7.4), a 4% v/v suspension of RBC was prepared in the same buffer. In a 96-well plate, serial two-fold dilutions of desired concentrations of peptidomimetics (in PBS) were prepared (100 μL) in duplicate. To each well 100 μL of 4% v/v RBC suspension was added. The plates were incubated at 37 °C for 1 h. After 1 h, the plates were centrifuged at 1500 rpm for 10 min and 20 μL of the supernatant was transferred to a fresh 96-well plate containing 80 μL PBS. The hemoglobin release was quantified by measuring OD414 in an ELISA plate reader (Molecular Devices, Sunnyvale, CA, USA). Hemoglobin release from 0.1% Triton X-100 treated RBC was set as 100% lysis (Amax) while as negative control RBC suspended in PBS alone was used (APBS). Percentage hemolysis was calculated using the following equation:1 %hemolysis=[(Asample−APBS)/(Amax−APBS)]×100

In brackets after ≈: the same amount, converted by molar mass. Residues, ends and D or L forms follow the SMILES beside them. No end group written: not given here.

“indolicidin (ILPWKWPWWPWRR; ends and bridges not checked; UniProt P33046 131-143, looked up) [naturally occurring Trp-Arg rich CAMP used as control]”: in data set [1], the “Minimum inhibitory concentration, MIC” value was 3.2 µg/mL. Moreover, the “% depolarization relative to melittin control (10 μM, set as 100%)” value in data set [2] (at 4 × MIC) stood at 87.4 ± 5.5%; in [2] (at MIC), 48.3 ± 6.3%. In addition, the “% calcein leakage” value was 42.2 ± 27.9% in data set [3] (at 4 × MIC, 2 min incubation); 50.6 ± 23.6% in data set [3] (at 4 × MIC, 2 h incubation); 6.2 ± 8.8% in data set [3] (at MIC, 2 min incubation); 2.7 ± 3.9% in data set [3] (at MIC, 2 h incubation). The “log reduction in viability” value in data set [4] is reported as 1.8 log.
The MIC is the smallest concentration in the dilution series that meets the test's criterion for growth inhibition. The low end stands for a more susceptible organism, the high end for a less susceptible organism. In the case of `N=C(N)NCCC[C@H](NC(=O)[C@H](Cc1c[nH]c2ccccc12)NC(=O)CCCCCCCCCCCNC(=O)[C@H](Cc1c[nH]c2ccccc12)NC(=O)[C@@H](N)CCCNC(=N)N)C(N)=O` [S-7, Arg-Trp-(12-ADO)-Trp-Arg-CONH2] (HELM PEPTIDE1{R.W.[O=C(CCCCCCCCCCCN[*:1])[*:2]].W.R.[am]}$$$$V2.0), the “Minimum inhibitory concentration, MIC” value in [5], in [1], in data set [6], in [7], in data set [8] and in data set [9] was 11.3 µg/mL (≈ 12.6 µM) in each case. The “Minimum inhibitory concentration, MIC” value was 11.3 µg/mL (≈ 12.6 µM) in data set [10]; 5.6 µg/mL (≈ 6.23 µM) in [11]; 22.7 µg/mL (≈ 25.2 µM) in data set [13] (ATCC 33591, 3 h); more than 45.4 µg/mL in data set [13] (MRSA ATCC 33591, after 3 h pre-incubation at 37 °C with mice plasma (50%, v/v), inoculum 2–5 × 10^5 CFU/mL, repeated on two days); 11.3 µg/mL (≈ 12.6 µM) in [13] (MRSA ATCC 33591, initial inoculum 10^7 CFU/mL, mid-log phase). Further, in data set [12], the MIC was more than 45.4 µg/mL. In addition, the “% viable cells relative to untreated control (MTT)” value in [14] (10× MIC) and in [14] (20 × MIC) was “no decrease in cell viability” each time.
Consider `N=C(N)NCCC[C@H](NC(=O)C(Cc1c(F)c(F)c(F)c(F)c1F)NC(=O)[C@H](CCCNC(=N)N)NC(=O)[C@@H](N)Cc1c[nH]c2ccccc12)C(=O)N[C@@H](Cc1c[nH]c2ccccc12)C(N)=O` (stereo partly drawn) [S-4, Trp-Arg-(F5-Phe propionic acid)-Arg-Trp-CONH2] (HELM PEPTIDE1{W.R.[O=C(C(Cc1c(F)c(F)c(F)c(F)c1F)N[*:1])[*:2]].R.W.[am]}$$$$V2.0), for which the “Minimum inhibitory concentration, MIC” value in [5], in [1], in [15], in data set [7] and in data set [8] was 45.4 µg/mL (≈ 48.4 µM) each time. The “% hemolysis” value in data set [16] is reported as less than 5%.
